Structures can show the parent of a compound that is named as a salt.
Key:
Type in all cases: in vivo, C. elegans
[1] = tested on: worms containing Pdat-1::GFP+Pdat-1::torsinA+Pdat-1::torsinA (ΔE) after 6-OHDA exposure; assay: 6-OHDA dopaminergic neurodegeneration in worms with wt and mutant torsinA; settings: wt and mutant torsinA co-expressed; 6-OHDA insult
Description: Previous studies have established that the “CEP” and “ADE” mechanosensory neurons in C. elegans undergo readily discernable neuronal degeneration after treatment with the dopamine-selective neurotoxin 6-OHDA (Nass et al, 2002). The toxicity of 6-OHDA is mediated through the formation of reactive oxygen species by the generation of hydrogen peroxide and […] via a nonenzymatic auto-oxidation process (Kumar et al., 1995; Foley and Riederer, 2000). […] This degeneration can be monitored in living animals by coexpressing with green fluorescent protein and categorized into three temporally and morphologically distinct stages, including neuronal process blebbing, cell body rounding with process loss, and cell body loss. These characteristic changes reproducibly appear in this order within a few hours, recapitulating observations in MPTP-treated monkeys and in 6-OHDA-treated rats, in which damage to striatal terminals leads to retrograde changes and precedes that of SNpc cell bodies (Berger et al., 1991; Herkenham et al., 1991). The actions of torsin protein in 6-OHDA-mediated neurodegeneration has recently been shown (Cao et al., J Neurosci, 25(1):3801-3812). Animals were treated with various concentrations of 6-OHDA and neurodegeneration was followed over time, as worms develop and age, by co-expression of a dopamine GFP marker in these transparent animals.
C. elegans nematodes were grown at 25° C. on NGM plates as described by Brenner (Brenner, Genetics, 1974, 77: 71-94). Two transgenic C. elegans lines were used for primary screens of the Prestwick small molecule library. A transgenic worm line expressing Pdat-1::GFP; with both wild type (Pdat-1::torsinA) or mutant (Pdat-1:::torsinA(ΔE)). Torsin-A expresses a phenotype that results in visible neurodegeneration after treatment with 6-OHDA. Transgenic worms were plated on drug plates and progeny were studied for morphological changes in the 8 dopaminergic neurons present in C. elegans.
Drugs were administered to C. elegans according to a standard procedure (Rand and Johnson, Methods Cell Biol, 1995, 48: 187-204) by mixing the solubilized drug with the agar medium on which the worms are grown. This mode of administration allows the continuous exposure of worms to the drug.
Each drug was first dissolved in an appropriate solvent, followed by adding the drug solution into pre-autoclaved media, with the volume of drug solution already taken into account. All drugs were tested at 0.5 mg/ml initial concentration, a few of which were toxic to worms and then tested at 0.1 mg/ml or 0.025 mg/ml concentration. Each plate was seeded with 100 μl concentrated E. coli OP50 bacteria
Age-synchronized worms were obtained by treating gravid adults with 2% sodium hypochlorite and 0.5M NaOH to isolate embryos (Lewis Fleming, 1995). These embryos were grown for 30 h at 25° C. At the L3 stage, larvae were incubated with 10 mM (50 mM) 6-OHDA and 2 mM (or 10 mM) ascorbic acid for 1 h with gentle agitation every 10 minutes. (Nass et al., 2002). The worms were then washed and spread onto NGM plates seeded with bacteria (OP50) and scored at time points ranging from 2 to 72 h after 6-OHDA exposure.
Immediately after 6-OHDA treatment, worms containing the transgenes were selected under a fluorescence dissecting microscope, based on the presence of GFP, and transferred to a fresh NGM plate seeded with OP50. For each time point, 30-40 worms were applied to a 2% agarose pad and immobilized with 3 mM levamisole. Worms were examined under a Nikon Eclipse E800 epifluorescence microscope equipped with an Endow GFP filter cube (Chroma Technology, Rockingham, Vt.). For ease of analysis, only the four CEP DA neurons in the head of the worm were scored. […]

GFP::DAT-1 = assay: Pdat-1::GFP::DAT-1 expression within DA neurons; settings: for Neurons with cell body and dendritic/axonal GFP: water control 70%; for Mean pixel intensity of cell bodies ± SEM (fluorescence intensity): water control 1970 ± 80, compounds at 1.85, 1.49, 1.86 mM
[2] = tested on: worms containing Punc-54::Q82::GFP+Punc-54::torsinA+Punc54::torsinA (ΔE); assay: Screen for reduction of polyglutamine protein aggregates in worms with wt and mutant torsinA; settings: differentiated by Q82::GFP lines without torsinA, with wt torsinA or with mutant torsinA
Method: (§1) C elegans nematodes were grown at 20° C. on NGM plates as described by Brenner (Brenner, Genetics, 1974, 77: 71-94). Several transgenic C. elegans lines were used for primary screens of the Prestwick small molecule library. A transgenic worm line expressing Punc-54::Q82-GFP; with both wild type (“wt”) (Punc=54: :torsinA) or mutant (Punc-54::torsinA(ΔE)). Torsin-A expresses a phenotype that results in visible protein aggregation under fluorescent microscope. Transgenic worms were plated on drug plates and progeny were studied for a return to soluble protein.
(§2) Drugs were administered to C. elegans according to a standard procedure (Rand and Johnson, Methods Cell Biol, 1995, 48: 187-204), by mixing the solubilized drug with the agar medium on which the worms are grown. This mode of administration allows the continuous exposure of worms to the drug.
Each drug was first dissolved in an appropriate solvent, followed by adding the drug solution into pre-autoclaved media, with the volume of drug solution already taken into account. […] Each plate was seeded with 100 μl concentrated E. coli OP50 bacteria.
(§3) The screening assays used to identify the compounds use protein aggregation readouts to determine the specificities of molecular action. […]
(§4) The methods for the aggregate analysis assay are described in Caldwell et al. (Hum Mol Genetics, 2003, 12(3): 307-319). […] MetaMorph Software (Universal Imaging Inc.) was used for pseudocoloration of images, image overlay, and aggregate size quantitation. For each worm line analyzed, average aggregate size was determined by capturing images of all aggregates in the posterior region of 30 L3-staged animals (for Q82::GFP aggregates) or all aggregates in 30 adult animals/day (for Q19::GFP analyses) at 1000× magnification. […]
(§5) To see the effect of the candidate compounds on suppressing protein misfolding and aggregation, five gravid adult worms were placed onto each drug plate and grown at 20° C. for approximately 3 days. Thirty Fl worms at L3 stage and young adult stage were counted for aggregate number.

[3] = tested on: worms expressing Punc-54::Q82::GFP+Punc-54::torsinA with wt torsinA only; assay: Protein aggregate assay in worms with wt torsinA only
Method: as §1, §2
Each drug was first dissolved in an appropriate solvent, followed by adding the drug solution into pre-autoclaved media, with the volume of drug solution already taken into account. […]
as §3, §4, §5

[4] = tested on: protein misfolding and aggregation in transgenic worms; assay: Preventative assay of protein aggregation (drug from hatching to L2 stage); settings: exposure from hatching to L2 stage; scored at L3 and young adult
Method: To see the preventative effects of the candidate drug compounds on protein misfolding and aggregation, five gravid adult worms were placed onto each drug plate and grown at 20° C. for approximately 3 days. 35-40 Fl worms at L2 stage were picked and transferred to a control plate with the same concentration of control solvent compared to the drug plate. Thirty worms at L3 stage were counted for aggregate number 8 hours later. Thirty young adults were analyzed 32 hours later.
(§6) To calculate the scaled effectiveness of special regimen of drugs on worms based on standardized decrease in protein aggregates. The following formula was used: (A−B)/(A−C)×100%, where
(§7) A=number of aggregates for worms growing on solvent control plates
(§8) B=number of aggregates for worms grown on the specific drug plate for the entire life of the worms
C=number of aggregates for worms that received pre-L2 exposure and were then removed to solvent control plates
(§9) If the regimen has no effect, the value would equal 0%. Conversely, if the regimen was as effective as raising the worms on the drug for their entire life, the value would equal 100%.

[5] = tested on: protein misfolding and aggregation in transgenic worms; assay: Corrective assay of protein aggregation (drug from L2 stage onward); settings: drug exposure from L2 stage onward; scored at L3 and young adult
Method: To see the corrective effect of the candidate drug compounds on protein misfolding and aggregation, five gravid adult worms were placed onto a solvent control plate and grown at 20° C. for approximately 3 days. 35-40 Fl worms at L2 stage were picked and transferred to a drug plate. Thirty worms at L3 stage were counted for aggregate number 8 hours later. Thirty young adults were analyzed 32 hours later.
as §6, §7, §8
C=number of aggregates for worms that received exposure from L2 stage (until adulthood)
as §9

[6] = tested on: Pdat-1::GFP+Pdat-1::α-synuclein+Pdat-1::torsinA worms; assay: α-synuclein toxicity assay, wt torsinA
Description: (§10) We have previously shown that torsinA can prevent dopamine (“DA”) neuron degeneration resulting from overexpression of α-synuclein in the DA neurons of C. elegans, while torsinA (“ΔE”) has a reduced neuroprotection (Cao et al., J Neurosci, 2005, 25(1): 3801-3812). Specifically, only 26.1±5.3% of the worms expressing Pdat-1::GFP+Pdat-1::α-synuclein maintained all 4 wildtype CEP DA neurons as 4 day adults while the percentages of the worms expressing Pdat-1::GFP+Pdat-1::α-synuclein+Pdat-1::torsinA and Pdat-1::GFP+Pdat-1::α-synuclein+Pdat-1:: torsinA (ΔE) are 57.3±1.6% and 42.2±7.3%, respectively (Cao et al., J Neurosci, 2005, 25(1): 3801-3812) (FIG. 8).
(§11) All molecules are coded by Prestwick Library number. TorsinA-dependent compounds identified from the aggregation assay have torsinA-specific effects and, therefore, are likely to function in the same manner in the α-synuclein toxicity assay. All three α-synuclein transgenic lines were exposed to the five torsinA-dependent compounds to determine their torsinA-specificity (FIG. 9). As expected, none of these compounds had any effect in Pdat-1::GFP+Pdat-1::α-synuclein when torsinA expression is absent.

[7] = tested on: Pdat-1::GFP+Pdat-1::α-synuclein+Pdat-1:: torsinA (ΔE) worms; assay: α-synuclein toxicity assay, mutant torsinA
Description: as §10, §11

[8] = tested on: transgenic worms containing the transgene Punc-54::Q82::GFP without any torsinA expression; assay: Protein aggregate assay in worms without torsinA expression
Method: C elegans nematodes were grown at 20° C. on NGM plates as described by Brenner (Brenner, Genetics, 1974, 77: 71-94). Several transgenic C. elegans lines were used for primary screens of the Prestwick small molecule library. A transgenic worm line expressing Punc-54::Q82-GFP; with both wild type (“wt”) (Punc=54: :torsinA) or mutant (Punc-54::torsinA(ΔE)). Torsin-A expresses a phenotype that results in visible protein aggregation under fluorescent microscope. Transgenic worms were plated on drug plates and progeny were studied for a return to soluble protein. […]
as §3, §4

[9] = Pdat-1::GFP::DAT-1, listed as Ciclopirox etnanolamine

Cc1cc(C2CCCCC2)n(O)c(=O)c1.NCCO [Ciclopirox ethanolamine]
neuroprotection of dopaminergic neurons against 6-OHDA [1]: showed no neuroprotection | Worms with no GFP (GFP::DAT-1; Pdat-1::GFP::DAT-1, water control 0%): 0% | Neurons with cell body GFP only (GFP::DAT-1; Pdat-1::GFP::DAT-1, water control 30%): 32.3% | Neurons with cell body and dendritic/axonal GFP (GFP::DAT-1; Pdat-1::GFP::DAT-1): 66.7% | Neurons with cell body and dendritic/axonal GFP (GFP::DAT-1; [9]): 66.7% | Mean pixel intensity of cell bodies ± SEM (fluorescence intensity) (GFP::DAT-1; Pdat-1::GFP::DAT-1): 1923 A.U. | Mean pixel intensity of cell bodies ± SEM (fluorescence intensity) (GFP::DAT-1; [9]): 1923 ± 85 A.U. | effect on GFP::DAT-1 level (GFP::DAT-1; result in words): did not have any significant effect

Cc1onc(-c2ccccc2Cl)c1C(=O)N[C@@H]1C(=O)N2[C@@H]1SC(C)(C)[C@@H]2C(=O)O [Compound 186, Cloxacillin sodium salt]
neuroprotection of dopaminergic neurons against 6-OHDA [1]: neuroprotective actions in this model, albeit to a lesser degree

CCn1cc(C(=O)O)c(=O)c2cc3c(cc21)OCO3 [Compound 193, Oxolinic Acid]
Specificity in worm assay [2]: wt torsinA | reduction of protein aggregation [3]: reduced protein aggregation | preventative effect on protein aggregation [4]: seem to be beneficial | corrective effect on protein aggregation [5]: seem to be beneficial | enhanced wild type DA neuron survival [6]: 31.4±3.7% | enhanced DA neuron survival [7]: no significant neuroprotection

CCCCOc1ccc(C(=O)CCN2CCCCC2)cc1 [Compound 264, Dyclonine HCl]
reduction of protein aggregates [8]: reduced the presence of protein aggregates

CC1(C)S[C@@H]2[C@H](NC(=O)[C@H](N)c3ccc(O)cc3)C(=O)N2[C@H]1C(=O)O [Compound 357, Amoxiciflin]
neuroprotection of dopaminergic neurons against 6-OHDA [1]: neuroprotective actions in this model, albeit to a lesser degree

CC1=C(C(=O)O)N2C(=O)[C@@H](NC(=O)[C@H](N)c3ccc(O)cc3)[C@H]2SC1 [Compound 434, Cefadroxil]
neuroprotection of dopaminergic neurons against 6-OHDA [1]: neuroprotective actions to the same degree as compound 235

CC1(C)S[C@@H]2[C@H](NC(=O)C(C(=O)O)c3ccccc3)C(=O)N2[C@H]1C(=O)O (stereo partly shown) [Compound 703, Carbenicillin disodium salt]
neuroprotection of dopaminergic neurons against 6-OHDA [1]: neuroprotective actions to the same degree as compound 235

From patent US20070203079A1, “Methods of using small molecule compounds for neuroprotection” (priority 2005, published 2007)
